The values below are quoted from earlier work in patent US20140004171A1, “TREATMENT OF ENDOMETRIOSIS BY INTRAVAGINAL ADMINISTRATION OF A LOW DOSE OF A SELECTIVE PROGESTERONE RECEPTOR MODULATOR (SPRM), ANTI-PROGESTIN, OR ANTI-PROGESTATIONAL AGENT” (ARSTAT Inc., priority 2011, published 2014).

The test system of one data set is liver enzymes. To be noted: oral.
Data set [1] deals with endometrial lining of the uterus. The note with it: oral.
For data set [2], the system named is women with endometriosis. To be noted: oral, 100 mg daily for three months.
Data set [3] deals with uterine and fibroid volumes.
The test system of data set [4] is women with endometriosis. The note with it: oral, 50 mg daily for 6 months, nine women.
Data set [5] has as its system women with endometriosis. The note with it: oral, 5 mg daily for 6 months, seven women.

For `COCC(=O)[C@@]1(OC(C)=O)CC[C@H]2[C@@H]3CCC4=CC(=O)CCC4=C3[C@@H](c3ccc(N(C)C)cc3)C[C@@]21C` [CDB-4124], the “Safety finding that suspended Phase III studies” value in the data set on liver enzymes was “significant increases in liver enzymes”.

For `COC[C@]1(OC)CC[C@H]2[C@@H]3CCC4=CC(=O)CCC4=C3[C@@H](c3ccc(/C=N/O)cc3)C[C@@]21C` [asoprisnil], the “Safety finding that terminated Phase III studies” value in data set [1] was “changes in the endometrial lining of the uterus”.

With `CC#C[C@]1(O)CC[C@H]2[C@@H]3CCC4=CC(=O)CCC4=C3[C@@H](c3ccc(N(C)C)cc3)C[C@@]21C` [mifepristone], the Amenorrhea reported entry with women with endometriosis [2] (six normally cycling women with endometriosis) was “all study participants”. For the same compound, in the data set with women with endometriosis [2] (six women), the “Change in the extent of endometriosis (follow-up laparoscopy)” value is on record as “no significant change” and the “Improvement in pelvic pain” value is given as “all women”. Moreover, the “Oral dose effective in the reduction of uterine and fibroid volumes and related symptoms” value in data set [3] is at least 10 mg/day. In addition, in data set [3] (oral, 2.5 mg/day), the Incidence of amenorrhea entry is “lower incidence of amenorrhea” and the “Reduction of uterine volume” value is given as “appreciably smaller reduction of uterine volume”. In addition, the “Ability to reduce uterine volume and eliminate some fibroid-related symptoms” value in data set [3] (oral, 5 mg/day) is recorded as “limited”. Moreover, in data set [3] (oral, 10 mg/day or higher), the “Incidence of side effects (endometrial hyperplasia, hot flashes, elevated liver enzymes)” value was “greater than desired”. For the same compound, in the data set with women with endometriosis [4], the Amenorrhea without hypoestrogenism entry was “All patients”; the “Pelvic pain and uterine cramping improved” value is given as “all patients”; the “Regression of endometriosis (laparoscopic assessment of endometrial implants, AFS score)” value is given as 55%. For the same compound, in the data set with women with endometriosis [5], the Cyclic bleeding ceased result is “all patients”, the “Decrease of mean endometriosis scores” value is 20% and the Pelvic pain improved result is given as “six of seven”.
